Reference: patent US20070059708A1, “Gene screen” (priority 2003, published 2007)

Tested on: HT29 cells
Assay: Optimisation of HT29 cell growth in butyrate as sole extraneous carbon source (cell counts)
Assay type: cell-based, human
Settings: HT29 colon carcinoma cells, DMEM without glucose, multiple concentrations compared
Experimental: We have compared the expression profiles of colon cells growing in either glucose or butyrate as a carbon source. HT 29 colon carcinoma cells were cultured in DMEM medium (Gibco) in the presence of 10% foetal calf serum, penicillin and streptomycin. Cells were either cultured in glucose alone as the sole carbon source, or in butyrate as the sole extraneous provided carbon source. […] Cells were cultured in either medium for multiple passages (typically 4). RNA was extracted from cells grown in each condition and used to probe an Affymetrix human 12 k array. The expression profile of cells cultured in each condition was compared and genes altered in expression by more than 2 fold are listed in Table 2.
HT29 cells were seeded out into 19 wells (in 6 well plates) at a cell density of 0.5×10^6 cells per well (i.e. 500 000 cells per well) deduced with the aid of a Haemocytometer (Improved Neubauer). These cells were taken from T75-0.2 mM butyrate (NaB) DMEM flasks and allowed to adhere to the 6-well plates over 72 hrs also in 0.2 mM NaB DMEM with FCS and Penicillin/Streptomycin antibiotics. […]

Question: `CCCC(=O)[O-].[Na+]` [butyrate, Sodium Butyrate] was tested. Which “butyrate concentration optimal for cell culture” value did it give?
Answer: 2 mM
